As a reminder, the IC50 is the point on the concentration scale where inhibition reaches its midpoint.

Where a SMILES comes first, the peptide text is derived from it. [ ]: non-standard residue; d: D form. Trp(7-aza) = N[C@@H](Cc1c[nH]c2ncccc12)C(=O)O; NMePhe(4-F) = CN[C@@H](Cc1ccc(F)cc1)C(=O)O; Phg = N[C@H](C(=O)O)c1ccccc1; Tle = CC(C)(C)[C@H](N)C(=O)O; NMeA = CN[C@@H](C)C(=O)O; Pra = C#CC[C@H](N)C(=O)O; AEEA = NCCOCCOCC(=O)O; PEG1 = NCCOCCC(=O)O; Sar = CNCC(=O)O

The subject of this assay is GMPPNP-loaded H-Ras or GTP-loaded K-Ras. The assay is described as follows: Fluorescence polarization competition assay with TAMRA-labeled probe R4007. The settings on record: 120 nM Ras, 30 nM probe R4007, 60 minutes at room temperature; read-out: Probe displacement (nM IC50). Format: binding, human. On the procedure:
R4000 was evaluated for competition with a TAMRA labeled probe (R4007) based on peptide R4000. The assay was performed in 384-well black, non-binding plates (Greiner Bio-One, Monroe, N.C.). GMPPNP-loaded H-Ras or GTP-loaded K-Ras, diluted in FP assay buffer (20 mM Tris-HCl, pH 7.5, 50 mM NaCl, 5 mM MgCl2, 1 mM EDTA, 0.002% Triton-X-100) for a final concentration of 120 nM was incubated with 30 nM R4007 for 20 minutes at room temperature. R4000 was serially diluted, added to the assay and incubated for 60 minutes at room temperature. Fluorescence polarization was detected with a SpectraMax Paradigm plate reader (Molecular Devices, Sunnyvale, Calif.) using the Rhodamine FP detection cartridge (535 nm/595 nm). Data was analyzed using GraphPad Prism and Ki determined using One Site Ki Curve fitting model.
Peptides were evaluated for competition with R4007, a probe consisting of TAMRA-labeled R4000, using a fluorescence polarization (FP) competition assay. The assay was performed in 384-well black, non-binding plates (Greiner Bio-One, Monroe, N.C.). GMPPNP-loaded H-Ras or GTP- loaded K-Ras, diluted in FP assay buffer (20 mM Tris-HCl, pH 7.5, 50 mM NaCl, 5 mM MgCl2, 1 mM EDTA, 0.002% Triton-X-100) for a final concentration of 120 nM was incubated with 30 nM probe for 20 minutes at room temperature. Peptides were serially diluted, added to the assay and incubated for 60 minutes at room temperature. Fluorescence was detected with a SpectraMax Paradigm plate reader (Molecular Devices, Sunnyvale, Calif.) using the Rhodamine FP detection cartridge (535 nm/595 nm). Data was analyzed and Ki determined using a One Site Ki Curve fitting model. Percent inhibition for each data point was calculated relative to the maximal binding in test compound-free control wells (showing no probe displacement) and Ras-free control wells (showing no probe binding) and the half-maximal inhibitory concentration (IC50), based on probe displacement, was determined.
(In general: Polarisation of emitted light reports the rotation of a fluorescent probe.)
On to `CC(=O)N[C@H]1CSCc2cccc(c2)CSC[C@@H](C(N)=O)NC(=O)CN(C)C(=O)[C@H](Cc2ccc(F)cc2)N(C)C(=O)[C@H](Cc2ccc(O)cc2)NC(=O)[C@H](Cc2c[nH]c3ncccc23)NC(=O)[C@H](c2ccccc2)NC(=O)[C@H](C)N(C)C(=O)[C@H](Cc2c[nH]cn2)NC(=O)[C@H](CCCCN)NC(=O)[C@H](C(C)(C)C)NC(=O)[C@H](Cc2ccc(O)cc2)NC1=O` (relative stereo) [Compound R4112, ACE-CYS*-TYR-TBG-LYS-HIS-NMA-PHG-7AW-TYR-MFF-SAR-CYS*-NH2], for which the 50% inhibitory concentration (IC50) is 21.4 nM.
`CCC[C@H](NC(C)=O)C(=O)N[C@H]1CSCc2cccc(c2)CSC[C@@H](C(N)=O)NC(=O)CN(C)C(=O)[C@H](Cc2ccc(F)cc2)N(C)C(=O)[C@H](Cc2ccc(O)cc2)NC(=O)[C@H](Cc2c[nH]c3ncccc23)NC(=O)[C@H](c2ccccc2)NC(=O)[C@H](CO)N(C)C(=O)[C@H](Cc2c[nH]cn2)NC(=O)[C@H](CCCCN)NC(=O)[C@H](C(C)(C)C)NC(=O)[C@H](Cc2ccc(O)cc2)NC1=O` (relative stereo) [Compound R4132, ACE-NVA-CYS*-TYR-TBG-LYS-HIS-NMS-PHG-SA7AW-TYR-MFF-R-CYS*-NH2]: the IC50 came to 281 nM.
Next, `CCC[C@H](NC(C)=O)C(=O)N[C@H]1CSCc2cccc(c2)CSC[C@@H](C(=O)NCC(=O)NCC(=O)NCC(=O)N[C@@H](CS)C(=O)N[C@H](C(=O)N[C@H](C(=O)N[C@@H](CCSC)C(=O)O)[C@@H](C)CC)C(C)C)NC(=O)CN(C)C(=O)[C@H](Cc2ccc(F)cc2)N(C)C(=O)[C@H](Cc2ccc(O)cc2)NC(=O)[C@H](Cc2c[nH]c3ncccc23)NC(=O)[C@H](c2ccccc2)NC(=O)[C@H](C)N(C)C(=O)[C@H](Cc2c[nH]cn2)NC(=O)[C@H](CCCCN)NC(=O)[C@H](C(C)(C)C)NC(=O)[C@H](Cc2ccc(O)cc2)NC1=O` (relative stereo) [Compound R4131, ACE-NVA-CYS*-TYR-TBG-LYS-HIS-NMA-PHG-7AW-TYR-MFF-SAR-CYS*-GLY-GLY-GLY-CYS-VAL-ILE-MET]: 278 nM.
In the case of `C#CC[C@@H]1NC(=O)CN(C)C(=O)[C@H](Cc2ccc(F)cc2)N(C)C(=O)[C@H](Cc2ccc(O)cc2)NC(=O)[C@H](Cc2c[nH]c3ncccc23)NC(=O)[C@H](c2ccccc2)NC(=O)[C@H](C)N(C)C(=O)[C@H](Cc2c[nH]cn2)NC(=O)[C@H](CCCCN)NC(=O)[C@H](C(C)(C)C)NC(=O)[C@H](Cc2ccc(O)cc2)NC(=O)CCOCCNC1=O` [Compound R4139, AEP*-TYR-TBG-LYS-HIS-NMA-PHG-7AW-TYR-MFF-SAR-PRG*] (cyclo([PEG1]Y[Tle]KH[NMeA][Phg][Trp(7-aza)]Y[NMePhe(4-F)][Sar][Pra])) it was 522 nM; in that of `C#CC[C@@H]1NC(=O)CN(C)C(=O)[C@H](Cc2ccc(F)cc2)N(C)C(=O)[C@H](Cc2ccc(O)cc2)NC(=O)[C@H](Cc2c[nH]c3ncccc23)NC(=O)[C@H](c2ccccc2)NC(=O)[C@H](C)N(C)C(=O)[C@H](Cc2c[nH]cn2)NC(=O)[C@H](CCCCN)NC(=O)[C@H](C(C)(C)C)NC(=O)[C@H](Cc2ccc(O)cc2)NC(=O)COCCOCCNC1=O` [Compound R4130, PEG1*-TYR-TBG-LYS-HIS-NMA-PHG-7AW-TYR-MFF-SAR-PRG*] (cyclo([AEEA]Y[Tle]KH[NMeA][Phg][Trp(7-aza)]Y[NMePhe(4-F)][Sar][Pra])), 268 nM.
As to `CCC[C@H](NC(C)=O)C(=O)N[C@H]1CSCc2cccc(c2)CSC[C@@H](C(=O)NCC(=O)N[C@@H](CS)C(=O)NCC(=O)N[C@H](C(=O)NCC(=O)N[C@H](C(=O)N[C@@H](CCSC)C(=O)O)[C@@H](C)CC)C(C)C)NC(=O)CN(C)C(=O)[C@H](Cc2ccc(F)cc2)N(C)C(=O)[C@H](Cc2ccc(O)cc2)NC(=O)[C@H](Cc2c[nH]c3ncccc23)NC(=O)[C@H](c2ccccc2)NC(=O)[C@H](C)N(C)C(=O)[C@H](Cc2c[nH]cn2)NC(=O)[C@H](CCCCN)NC(=O)[C@H](C(C)(C)C)NC(=O)[C@H](Cc2ccc(O)cc2)NC1=O` (relative stereo) [Compound R4119, ACE-NVA-CYS*-TYR-TBG-LYS-HIS-NMA-PHG-7AW-TYR-MFF-SAR-CYS*-GLY-CYS-GLY-VAL-GLY-ILE-MET], the half-inhibitory concentration (IC50) is 64.4 nM.
Next, `CCC[C@H](NC(C)=O)C(=O)N[C@H]1CSCc2cccc(c2)CSC[C@@H](C(N)=O)NC(=O)[C@H](C)N(C)C(=O)[C@H](Cc2ccc(F)cc2)N(C)C(=O)[C@H](Cc2ccc(O)cc2)NC(=O)[C@H](Cc2c[nH]c3ncccc23)NC(=O)[C@@H](c2ccccc2)NC(=O)[C@H](C)N(C)C(=O)[C@H](Cc2c[nH]cn2)NC(=O)[C@H](CCCCN)NC(=O)[C@H](C(C)(C)C)NC(=O)[C@H](Cc2ccc(O)cc2)NC1=O` (relative stereo) [Compound R4121, ACE-NVA-CYS*-TYR-TBG-LYS-HIS-NMA-DPHG-7AW-TYR-MFF-NMA-CYS*-NH2]: 73 nM; `C=CC(=O)NCCC[C@H]1C(=O)N[C@@H](c2ccccc2)C(=O)N[C@@H](Cc2c[nH]c3ncccc23)C(=O)N[C@@H](Cc2ccc(O)cc2)C(=O)N(C)[C@@H](Cc2ccc(F)cc2)C(=O)N(C)CC(=O)N[C@H](C(N)=O)CSCc2cccc(c2)CSC[C@H](NC(=O)[C@H](CCC)NC(C)=O)C(=O)N[C@@H](Cc2ccc(O)cc2)C(=O)N[C@@H](C(C)(C)C)C(=O)N[C@@H](C)C(=O)N[C@@H](Cc2c[nH]cn2)C(=O)N1C` (relative stereo) [Compound R4142, ACE-NVA-CYS*-TYR-TBG-ALA-HIS-MORAC-PHG-7AW-TYR-MFF-SAR-CYS*-NH2]: 1240 nM.
Next, `CCC[C@H](NC(C)=O)C(=O)N[C@H]1CSCc2cccc(c2)CSC[C@@H](C(N)=O)NC(=O)[C@H](Cc2c[nH]cn2)NC(=O)[C@H](CCC)NC(=O)[C@H](Cc2c[nH]c3ncccc23)NC(=O)[C@H](CCC(=O)O)NC(=O)[C@H](Cc2c[nH]c3ncccc23)NC(=O)[C@H](Cc2c[nH]c3ncccc23)NC(=O)[C@H]([C@@H](C)O)NC(=O)[C@H](Cc2c[nH]cn2)NC(=O)[C@H](Cc2ccc(O)cc2)NC(=O)[C@H](C(C)(C)C)NC1=O` (relative stereo) [Compound R4100, ACE-NVA-CYS*-TBG-TYR-HIS-THR-7AW-7AW-GLU-7AW-NVA-HIS-CYS*-NH2]: 1.06 nM.
In the case of `CCC[C@H](NC(=O)CCCCCCNC(=O)[C@H](CC(C)C)NC(=O)[C@@H](O)[C@H](N)Cc1ccccc1)C(=O)N[C@H]1CSCc2cccc(c2)CSC[C@@H](C(N)=O)NC(=O)CN(C)C(=O)[C@H](Cc2ccc(F)cc2)N(C)C(=O)[C@H](Cc2ccc(O)cc2)NC(=O)[C@H](Cc2c[nH]c3ncccc23)NC(=O)[C@H](c2ccccc2)NC(=O)[C@H](C)N(C)C(=O)[C@H](Cc2c[nH]cn2)NC(=O)[C@H](CCCCN)NC(=O)[C@H](C(C)(C)C)NC(=O)[C@H](Cc2ccc(O)cc2)NC1=O` (relative stereo) [Compound R4106, UBX-AHPA-NVA-CYS*-TYR-TBG-LYS-HIS-NMA-PHG-7AW-TYR-MFF-SAR-CYS*-NH2] it was 8.38 nM; in that of `CCC[C@H](NC(C)=O)C(=O)N[C@H]1CSCc2cccc(c2)CSC[C@@H](C(N)=O)NC(=O)CN(C)C(=O)[C@H](Cc2ccc(F)cc2)N(C)C(=O)[C@H](Cc2ccc(O)cc2)NC(=O)[C@H](Cc2c[nH]c3ncccc23)NC(=O)[C@H](c2ccccc2)NC(=O)[C@H](C)N(C)C(=O)[C@H](CCN)NC(=O)[C@H](C)NC(=O)[C@H](C(C)(C)C)NC(=O)[C@H](Cc2ccc(O)cc2)NC1=O` (relative stereo) [Compound R4140, ACE-NVA-CYS*-TYR-TBG-ALA-DBA-NMA-PHG-7AW-TYR-MFF-SAR-CYS*-NH2], 608 nM; in that of `C=CC(=O)NC[C@@H]1NC(=O)[C@H](C)NC(=O)[C@H](C(C)(C)C)NC(=O)[C@H](Cc2ccc(O)cc2)NC(=O)[C@@H](NC(=O)[C@H](CCC)NC(C)=O)CSCc2cccc(c2)CSC[C@@H](C(N)=O)NC(=O)CN(C)C(=O)[C@H](Cc2ccc(F)cc2)N(C)C(=O)[C@H](Cc2ccc(O)cc2)NC(=O)[C@H](Cc2c[nH]c3ncccc23)NC(=O)[C@H](c2ccccc2)NC(=O)[C@H](C)N(C)C1=O` (relative stereo) [Compound R4136, ACE-NVA-CYS*-TYR-TBG-ALA-DABAC2-NMA-PHG-7AW-TYR-MFF-SAR-CYS*-NH2], 392 nM.
As to `CCC[C@H](NC(C)=O)C(=O)N[C@H]1CSCc2cccc(c2)CSC[C@@H](C(=O)N[C@H](CO)C(=O)N[C@H](C)C(=O)N[C@@H](CCCCN)C(=O)N[C@@H](CSSC(C)(C)C)C(=O)N[C@H](C(=O)N[C@H](C(=O)N[C@@H](CCSC)C(=O)O)[C@@H](C)CC)C(C)C)NC(=O)CN(C)C(=O)[C@H](Cc2ccc(F)cc2)N(C)C(=O)[C@H](Cc2ccc(O)cc2)NC(=O)[C@H](Cc2c[nH]c3ncccc23)NC(=O)[C@H](c2ccccc2)NC(=O)[C@H](C)N(C)C(=O)[C@H](Cc2c[nH]cn2)NC(=O)[C@H](CCCCN)NC(=O)[C@H](C(C)(C)C)NC(=O)[C@H](Cc2ccc(O)cc2)N(C)C1=O` (relative stereo) [Compound R4129, ACE-NVA-CYS*-NMY-TBG-LYS-HIS-NMA-PHG-7AW-TYR-MFF-SAR-CYS*-DSER-DALA-LYS-TDSPA-VAL-ILE-MET], the IC50 was 227 nM.

Values taken from US10954287B2, “Ras binding peptides and methods of use” (Ra Pharmaceuticals, Inc., priority 2016, dated 2021).
